Experimental data reported in patent US20190127359A1, “Compounds & Methods for the Enhanced Degradation of Targeted Proteins & Other Polypeptides by an E3 Ubiquitin Ligase” (YALE UNIVERSITY, priority 2012, published 2019).
Where two headings read alike, the source gives them in different places.

Target: VHL (Homo sapiens, UniProt P40337)
Assay: Fluorescence polarization competition assay (HIF-1α peptide FP displacement)
Conditions: for displacement of the fluorescent HIF-1α peptide: fluorescence polarization, result in words
[1] = Table 1A, binding of initial ligands to VHL, average of three independent trials, each in triplicate

| Compound | IC50 (IC50 (μM) 10% DMSO, 10% DMSO) [µM] | also measured |
| --- | --- | --- |
| Cc1cc(CC(=O)N2C[C@H](O)C[C@H]2C(=O)NCc2cccc(Cl)c2)on1 [Compound 1] |  | IC50 [1]: 117 µM; displacement of the fluorescent HIF-1α peptide: able to displace the fluorescent peptide albeit at high concentrations |
| O=C(NCc1ccc(Cl)cc1)[C@@H]1C[C@@H](O)CN1C(=O)c1ccccc1[N+](=O)[O-] [VL065] | 74.2 |  |
| Cc1cc(CC(=O)N2C[C@H](O)C[C@H]2C(=O)NCc2ccc(C(C)(C)C)cc2)on1 [VL031] | 68.5 |  |
| Cc1cc(CC(=O)N2C[C@H](O)C[C@H]2C(=O)NCc2ccc(-c3ocnc3C)cc2)on1 [VL117] | 5 | IC50 (IC50 (μM) 1% DMSO, 1% DMSO): 13 µM |
| Cc1cc(CC(=O)N2C[C@H](O)C[C@H]2C(=O)NCCN2CCOCC2)on1 [VL015] | > 1000 |  |
| Cc1cc(CC(=O)N2C[C@H](O)C[C@H]2C(=O)NCc2ccc(-c3cncs3)cc2)on1 [VL155] | 17.4 | IC50 (IC50 (μM) 1% DMSO, 1% DMSO): 14 µM |
| O=C(NCc1ccc(Cl)cc1)[C@@H]1C[C@@H](O)CN1C(=O)CN1C(=O)CSC1=S [VL108] | 347 |  |
| CS(=O)(=O)N1C[C@H](O)C[C@H]1C(=O)Nc1ccc(Br)cc1F [VL010] |  | IC50 (μM) 10% DMSO (10% DMSO): Inactive |
| Cc1cc(CC(=O)N2C[C@H](F)C[C@H]2C(=O)NCc2ccc(-c3cnco3)cc2)on1 [VL113] |  | IC50 (μM) 1% DMSO (1% DMSO): Inactive; IC50 (μM) 10% DMSO (10% DMSO): Inactive |
| Cc1cc(CC(=O)N2C[C@H](O)C[C@H]2C(=O)NCc2ccc3c(c2)OCO3)on1 [VL017] | ~510 |  |
| CNC(=O)c1cc(Oc2ccc(NC(=O)[C@@H]3C[C@@H](O)CN3C(=O)Cc3cc(C)no3)cc2)ccn1 [VL027] | > 1000 |  |
| NC(=O)CCC(=O)N1C[C@H](O)C[C@H]1C(=O)NCc1ccc(Cl)cc1 [VL050] | 332 |  |
| O=C(NCc1ccc(Cl)cc1)[C@@H]1C[C@@H](O)CN1C(=O)c1ccc([N+](=O)[O-])c(O)c1 [VL084] | 460 |  |
| Cc1cc(CC(=O)N2C[C@H](O)C[C@H]2C(=O)NCc2ccc(Cl)c(Cl)c2)on1 [VL030] | 215 |  |
| N#Cc1ccc(CC(=O)N2C[C@H](O)C[C@H]2C(=O)NCc2ccc(Cl)cc2)s1 [VL068] | > 1000 |  |
| Cc1cc(CC(=O)N2C[C@H](O)C[C@H]2C(=O)NCc2ccc(Cl)cc2Cl)on1 [VL085] | 27.1 |  |
| O=C(NCc1ccc(Cl)cc1)[C@@H]1C[C@@H](O)CN1C(=O)c1cccc(-c2ncc[nH]2)c1 [VL123] | 560 | IC50 (IC50 (μM) 1% DMSO, 1% DMSO): 404 µM |
| CCOC(=O)Cn1cc(-c2cccc(C(=O)N3C[C@H](O)C[C@H]3C(=O)NCc3ccc(Cl)cc3)c2)nn1 [VL148] | 23.8 | IC50 (IC50 (μM) 1% DMSO, 1% DMSO): 113 µM |
| O=C(NCc1ccc(Cl)cc1)[C@@H]1C[C@@H](O)CN1C(=O)c1cc(-c2ccccc2)on1 [VL060] | > 1000 |  |
| CC(=O)O[C@@H]1C[C@@H](C(=O)NCc2ccc(-c3cnco3)cc2)N(C(=O)Cc2cc(C)no2)C1 [VL114] |  | IC50 (μM) 1% DMSO (1% DMSO): Inactive; IC50 (μM) 10% DMSO (10% DMSO): Inactive |
| O=C(NCc1ccc(Cl)cc1)[C@@H]1C[C@@H](O)CN1C(=O)c1cc(C2CC2)on1 [VL061] | 419 |  |
| Cc1cc(CC(=O)N2C[C@H](O)C[C@H]2C(=O)NCc2cccc(Cl)c2)on1 [VL004, (2S,4R)—N-(3-chlorobenzyl)-4-hydroxy-1-(2-(3-methylisoxazol-5-yl)acetyl)pyrrolidine-2-carboxamide] | 123 | IC50 (read-out: IC50 (μM) 1% DMSO, 1% DMSO): 117 µM |
| COc1ccc(Cn2cncc2-c2ccc(CNC(=O)[C@@H]3C[C@@H](O)CN3C(=O)Cc3cc(C)no3)cc2)cc1 [VL132] | 77.7 | IC50 (IC50 (μM) 1% DMSO, 1% DMSO): 85 µM |
| O=C(NCc1cccc(Cl)c1)[C@@H]1C[C@@H](O)CN1C(=O)Cc1nnn[nH]1 [VL012] | > 1000 |  |

| Compound | IC50 (IC50 (μM) 10% DMSO, 10% DMSO) [µM] | also measured |
| --- | --- | --- |
| CC(C)[Si](c1cn(CC(=O)N2C[C@H](O)C[C@H]2C(=O)NCc2ccc(-c3ccccc3)cc2)nn1)(C(C)C)C(C)C [VL135] |  | IC50 (μM) 10% DMSO (10% DMSO): Inactive; IC50 (IC50 (μM) 1% DMSO, 1% DMSO): > 1000 µM |
| Cc1cc(CC(=O)N2C[C@H](O)C[C@H]2C(=O)N[C@@H](C)c2ccc([N+](=O)[O-])cc2)on1 [VL049] | 15.1 |  |
| COc1ccc(CNC(=O)[C@@H]2C[C@@H](O)CN2C(=O)Cc2cc(C)no2)cc1OC [VL025] | 517 |  |
| O=C(NCc1ccc(Cl)cc1)[C@@H]1C[C@@H](O)CN1C(=O)c1cccc2[nH]cnc12 [VL125] | 790 | IC50 (IC50 (μM) 1% DMSO, 1% DMSO): 568 µM |
| Cc1cc(CC(=O)N2C[C@H](O)C[C@H]2C(=O)NCc2ccccc2Cl)on1 [VL028] | 210 |  |
| Cc1cc(CC(=O)N2C[C@H](O)C[C@H]2C(=O)NCc2ccc(-c3c(C)n[nH]c3C)cc2)on1 [VL152] | 22.8 | IC50 (IC50 (μM) 1% DMSO, 1% DMSO): 32 µM |
| N#Cc1cc(Br)cc(C(=O)N2C[C@H](O)C[C@H]2C(=O)NCc2ccc(Cl)cc2)c1 [VL059] | 205 |  |
| O=C(NCc1ccc(Cl)cc1)[C@@H]1C[C@@H](O)CN1C(=O)Cc1cccnc1 [VL105] | > 1000 |  |
| Cc1ccc(S(=O)(=O)N2C[C@H](O)C[C@H]2C(=O)Nc2ccc(Br)cc2F)cc1 [VL009] |  | IC50 (μM) 10% DMSO (10% DMSO): Inactive |
| Cc1cc(CC(=O)N2C[C@H](O)C[C@H]2C(=O)Nc2ccc(Br)cc2F)on1 [VL011] | > 1000 |  |
| Cc1cc(CC(=O)N2C[C@H](O)C[C@H]2C(=O)NCc2ccc(C(=O)O)cc2)on1 [VL146] | 129 | IC50 (IC50 (μM) 1% DMSO, 1% DMSO): 196 µM |
| CCCNC(=O)OC[C@@H](NC(=O)[C@@H]1C[C@@H](O)CN1C(=O)Cc1cc(C)no1)c1ccc(Cl)cc1 [VL163] | 508 | IC50 (IC50 (μM) 1% DMSO, 1% DMSO): 610 µM |
| O=C(NCc1ccc(Cl)cc1)[C@@H]1C[C@@H](O)CN1C(=O)c1cccc(Br)c1 [VL076] | 19.6 |  |
| CCCNC(=O)OC[C@H](NC(=O)[C@@H]1C[C@@H](O)CN1C(=O)Cc1cc(C)no1)c1ccc(Cl)cc1 [VL164] | 72.9 | IC50 (IC50 (μM) 1% DMSO, 1% DMSO): 40 µM |
| Cc1cc(CC(=O)N2C[C@H](O)C[C@H]2C(=O)NCc2ccc(-c3ncco3)cc2)on1 [VL112] | 11.3 |  |
| Cc1cc(CC(=O)N2C[C@H](O)C[C@H]2C(=O)NCc2ccc(Br)cc2)on1 [VL029] | 24.9 |  |
| Cc1nc(C(=O)N2C[C@H](O)C[C@H]2C(=O)NCc2ccc(Cl)cc2)co1 [VL101] | 940 |  |
| Cc1cc(CC(=O)N2C[C@H](O)C[C@H]2C(=O)NCc2ccc(-c3cccn3C)cc2)on1 [VL119] | 17.8 | IC50 (IC50 (μM) 1% DMSO, 1% DMSO): 33 µM |
| Cc1cc(CC(=O)N2C[C@H](O)C[C@H]2C(=O)NCc2ccc(OC(F)(F)F)cc2)on1 [VL045] | 146 |  |
| O=C(NCc1ccc(Cl)cc1)[C@@H]1C[C@@H](O)CN1C(=O)Cc1c[nH]cn1 [VL120] | > 1000 | IC50 (IC50 (μM) 1% DMSO, 1% DMSO): > 1000 µM |
| O=C(NCc1ccc(Cl)cc1)[C@@H]1C[C@@H](O)CN1C(=O)c1ccc(Cl)cc1Br [VL081] | 15.5 |  |
| Cc1cc(CC(=O)N2C[C@H](O)C[C@H]2C(=O)NCc2cccc(-c3cccn3C)c2)on1 [VL118] | 16.4 | IC50 (IC50 (μM) 1% DMSO, 1% DMSO): 31 µM |
| Cc1cc(CC(=O)N2C[C@H](O)C[C@H]2C(=O)N(C)Cc2ccc(Cl)cc2)on1 [VL147] | > 1000 | IC50 (IC50 (μM) 1% DMSO, 1% DMSO): > 1000 µM |
| Cc1n[nH]cc1C(=O)N1C[C@H](O)C[C@H]1C(=O)NCc1ccc(Cl)cc1 [VL102] | 64.5 |  |

| Compound | IC50 (IC50 (μM) 10% DMSO, 10% DMSO) [µM] | also measured |
| --- | --- | --- |
| Cc1cc(CC(=O)N2C[C@H](O)C[C@H]2C(=O)NCCc2ccc(O)cc2)on1 [Compound 2] |  | IC50 [1]: 120 µM; displacement of the fluorescent HIF-1α peptide: able to displace the fluorescent peptide albeit at high concentrations |
| Cc1cc(CC(=O)N2C[C@H](O)C[C@H]2C(=O)NCc2cccc3cccnc23)on1 [VL094] | 540 |  |
| O=C(NCc1ccc(Cl)cc1)[C@@H]1C[C@@H](O)CN1C(=O)c1cncc(Br)c1 [VL100] | 63.6 |  |
| CC(=O)Nc1ccc(Br)cc1C(=O)N1C[C@H](O)C[C@H]1C(=O)NCc1ccc(Cl)cc1 [VL083] | > 1000 |  |
| O=C(NCc1ccc(Cl)cc1)[C@@H]1C[C@@H](O)CN1C(=O)CCN1CCCCC1 [VL104] | > 1000 |  |
| Cc1cc(CC(=O)N2C[C@H](O)C[C@H]2C(=O)N[C@H](CO)c2ccc(Cl)cc2)on1 [VL162] | 235 |  |
| Cc1cc(CC(=O)N2C[C@H](O)C[C@H]2C(=O)NCc2ccc(F)cc2)on1 [VL020] | 295 |  |
| Cc1cc(CC(=O)N2C[C@H](O)C[C@H]2C(=O)NCc2ccc(-c3c(C)noc3C)cc2)on1 [VL138] | 52.2 | IC50 (IC50 (μM) 1% DMSO, 1% DMSO): 70 µM |
| O=C(NCc1ccc(Cl)cc1)[C@@H]1C[C@@H](O)CN1C(=O)Cc1cccc(Br)c1 [VL055] | 910 |  |
| O=C(Nc1ccc(Br)cc1F)[C@@H]1C[C@@H](O)CN1S(=O)(=O)c1ccc2ccccc2c1 [VL001] | > 1000 |  |
| Cc1cc(CC(=O)N2C[C@H](O)C[C@H]2C(=O)NCc2ccc(S(N)(=O)=O)cc2)on1 [VL087] | 103 |  |
| Cc1cc(CC(=O)N2C[C@H](O)C[C@H]2C(=O)NCc2ccc(C(=O)C(C)C)cc2)on1 [VL089] | 40.8 |  |
| O=C(NCc1ccc(Cl)cc1)[C@@H]1C[C@@H](O)CN1C(=O)c1cccc(C(F)(F)F)c1 [VL078] | 60.2 |  |
| O=C(NCc1ccc(Cl)cc1)[C@@H]1C[C@@H](O)CN1C(=O)c1ccccn1 [VL098] | 244 |  |
| Cc1cc(CC(=O)N2C[C@H](O)C[C@H]2C(=O)N[C@@H](C)c2ccccc2)on1 [VL032] | 639 |  |
| O=C(NCc1ccc(Cl)cc1)[C@@H]1C[C@@H](O)CN1C(=O)Cc1cccs1 [VL053] | > 1000 |  |
| Cc1cc(CC(=O)N2C[C@H](O)C[C@H]2C(=O)NCc2ccncc2)on1 [VL037] | 88.8 |  |
| Cc1ccc(S(=O)(=O)N2C[C@H](O)C[C@H]2C(=O)NCCc2ccc(O)cc2)cc1 [VL003] | > 1000 |  |
| COCc1cn(CC(=O)N2C[C@H](O)C[C@H]2C(=O)NCc2ccc(-c3ccccc3)cc2)nn1 [VL137] | 35.6 | IC50 (IC50 (μM) 1% DMSO, 1% DMSO): 128 µM |
| Cc1cc(CC(=O)N2C[C@H](O)C[C@H]2C(=O)NCc2cccc(-c3scnc3C)c2)on1 [VL115] | 17 | IC50 (IC50 (μM) 1% DMSO, 1% DMSO): 19 µM |
| O=C(NCc1ccc(Cl)cc1)[C@@H]1C[C@@H](O)CN1C(=O)c1ccc(Cl)cc1 [VL074] | 42.9 |  |
| Nc1ccccc1C(=O)N1C[C@H](O)C[C@H]1C(=O)NCc1ccc(Cl)cc1 [VL070] | 38.2 |  |
| Cc1cc(CC(=O)N2C[C@H](O)C[C@H]2C(=O)NCc2ccc([N+](=O)[O-])cc2)on1 [VL048] | 24.8 |  |
| O=C(NCc1ccc(Cl)cc1)[C@@H]1C[C@@H](O)CN1C(=O)c1cccc(-c2cnco2)c1 [VL122] | 102 | IC50 (IC50 (μM) 1% DMSO, 1% DMSO): 220 µM |
